{
  "source": "BindingDB's records for doi:10.1016/j.bmcl.2023.129277",
  "about": "(n/a, 2023)",
  "key": {"[1]": {"assay": "Inhibition of PKD1 (unknown origin)"}, "[2]": {"assay": "Inhibition of PKD1 (unknown origin) assessed as inhibition constant"}},
  "data": [
    {"compound": "CN1C(=O)[C@](O)(C#Cc2cccc(-n3nc(C(N)=O)c4cccnc43)c2)[C@H]2C[C@H]21", "note": "[1-(3-(((1R,4R,5S)-4-hydroxy-2-methyl-3-oxo-2-azabicyclo[3.1.0]hexan-4-yl)ethynyl)phenyl)-1H-pyrazolo[3,4-b]pyridine-3-carboxamide]", "values": [
      {"measurement": "IC50", "setting": "[1]", "result": 210, "unit": "nM"},
      {"measurement": "Ki", "setting": "[2]", "result": 64, "unit": "nM"}
    ]}
  ]
}
